Measured values published in US20240173440A1, “HIGH PURITY COPPER RADIOPHARMACEUTICAL COMPOSITIONS AND DIAGNOSTIC AND THERAPEUTIC USES THEREOF” (Nuclidium AG, priority 2022, published 2024).

Key:
[1] = Lipophilicity, log D by shake-flask method (1-octanol/PBS pH 7.4); format: physicochemical; details: shake-flask, Table 17, mean ± SD
Procedure, shortened: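 Radiotracer shaken 30 min in pre-saturated 1-octanol/PBS pH 7.4 (1:1), then centrifuged for phase separation. Radioactivity in each phase measured by gamma counting; log D reported as the average log of organic/PBS activity ratio.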

[2] = system: LNCaP xenografts; assay: Quantitative biodistribution in LNCaP xenografted mice; format: in vivo; details: for kidney uptake: 1h p.i.
Description: The mice were randomly distributed in groups and euthanized at 1 and at 4 hours post-injection. The organs of interest were collected, rinsed, blotted, weighed and counted in a gamma counter. The results are expressed as percentage of injected activity per gram (% IA/g), representing the mean±standard deviation of n=4-8 mice per group and they were obtained by extrapolation from counts of an aliquot taken from the injected solution as standard.
The biodistribution of the [^61Cu]Cu-NODAGA radiotracers was compared with the reference compounds used in patients under identical experimental conditions. The mice were randomly distributed in groups, injected with the radiotracer under investigation and euthanized at 1 and at 4 hours post-injection of the radiotracers under investigation. The organs of interest were collected, rinsed, blotted, weighed and counted in a gamma counter. The results are expressed as percentage of injected activity per gram (% IA/g), representing the mean±standard deviation of all mice per group and they were obtained by extrapolation from counts of an aliquot taken from the injected solution as standard.

[3] = target: PSMA (Homo sapiens (Human), UniProt Q04609); assay: PET/CT imaging in a patient with metastatic prostate cancer; format: in vivo; details: metastatic castration resistant prostate cancer, imaging 3 hours after administration
Sequence of PSMA (Q04609 whole entry): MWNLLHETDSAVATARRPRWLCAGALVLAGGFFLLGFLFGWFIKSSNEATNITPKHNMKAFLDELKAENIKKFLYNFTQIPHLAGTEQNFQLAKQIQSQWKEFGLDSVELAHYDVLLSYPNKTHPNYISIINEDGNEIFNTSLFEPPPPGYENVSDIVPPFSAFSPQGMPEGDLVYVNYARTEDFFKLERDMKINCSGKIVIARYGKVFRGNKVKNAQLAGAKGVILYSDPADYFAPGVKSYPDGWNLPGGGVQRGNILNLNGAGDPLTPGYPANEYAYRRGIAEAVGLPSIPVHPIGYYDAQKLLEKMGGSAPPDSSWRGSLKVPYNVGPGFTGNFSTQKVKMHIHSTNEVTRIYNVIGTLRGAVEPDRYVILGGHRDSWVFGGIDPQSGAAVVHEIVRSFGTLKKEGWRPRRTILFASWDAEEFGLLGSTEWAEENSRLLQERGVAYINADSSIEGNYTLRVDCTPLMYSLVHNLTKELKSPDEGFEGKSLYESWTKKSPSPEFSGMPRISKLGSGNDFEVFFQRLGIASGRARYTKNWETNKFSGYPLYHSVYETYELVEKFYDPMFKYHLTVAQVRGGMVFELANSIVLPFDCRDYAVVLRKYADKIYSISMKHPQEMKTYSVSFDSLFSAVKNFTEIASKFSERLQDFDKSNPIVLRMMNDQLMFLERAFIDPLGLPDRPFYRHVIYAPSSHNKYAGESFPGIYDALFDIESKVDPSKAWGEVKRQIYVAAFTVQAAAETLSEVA
Description: Radiopharmaceutical preparation: The reaction is carried out in a GE Healthcare FASTlab 2 module. A 40 μg (28 nmol) aliquot of lyophilized NODAGA-PSMA-I&T (piCHEM, Austria) was dissolved in up to 6 mL 0.5 M sodium acetate (pH 8) and ascorbic acid (20 μg/mL), and transferred to a reaction vial. Then [^61Cu]CuCl2 in 0.05 M hydrochloric acid (0.3-1.0 GBq/mL) (3 mL) was added to the NODAGA-PSMA-I&T solution, reaching a pH between 4.5 and 6.5. The obtained reaction solution was incubated for 10 min at room temperature (approx. 20-25° C.) and dispensed to the product vial (20 mL sterile evacuated vial) over a sterile Cathivex-GV 25 mm PVDF 0.22 μm filter. The product was finally diluted with 0.9% sodium chloride for injection (B. Braun, Germany) up to 12 mL. [^61Cu]Cu-NODAGA-PSMA-I&T is produced with high radiochemical purity (≥95%). Therefore, no further purification step is necessary. All the chemicals used are trace metal grade.
The patient was co-administered […] furosemide (Lasix®, Sanofi-Aventis, Frankfurt, Germany). The imaging was performed at 3 hours following radiotracer administration on a Biograph Vision 600 (Siemens, Germany) PET/CT scanner. These images, shown in FIG. 35, were obtained from the skull to mid-thigh and reconstructed into multiplanar PT, CT, and fused PET/CT images. CT was used for attenuation correction.

[4] = LNCap xenograft mice, 1 h after injection
[5] = LNCap xenograft mice, 4 h after injection

With O=C(O)CC[C@H](NC(=O)N[C@@H](CCCCNC(=O)CCCCCCC(=O)NCCCC[C@@H](NC(=O)[C@@H](Cc1ccccc1)NC(=O)[C@@H](Cc1ccc(O)c(I)c1)NC(=O)CC[C@H](C(=O)O)N1CCN2CCN(CC1)CC(=O)[O][61Cu][O]C(=O)C2)C(=O)O)C(=O)O)C(=O)O [[^61Cu]Cu-NODAGA-PSMA-I&T] the “log D(O/PBS pH 7.4)” value [1] was −2.95±0.08, the “Biodistribution Adrenal” value ([2]; 1 hour p.i., LNCaP xenografts) was 17.3 ± 3.26 % IA/g and the “Biodistribution Blood” value ([2]; 1 hour p.i., LNCaP xenografts) was 0.28 ± 0.06 % IA/g. The “Biodistribution Bone” value ([2]; 1 hour p.i., LNCaP xenografts) was 2.73 ± 0.91 % IA/g, the “Biodistribution Heart” value ([2]; 1 hour p.i., LNCaP xenografts) was 0.45 ± 0.15 % IA/g and the “Biodistribution Intestine” value ([2]; 1 hour p.i., LNCaP xenografts) was 2.11 ± 0.78 % IA/g. For the same molecule, the “Biodistribution Kidneys” value ([2]; 1 hour p.i., LNCaP xenografts) was 118 ± 13 % IA/g, the “Biodistribution LNCaP-tumor” value ([2]; 1 hour p.i., LNCaP xenografts) was 14.0 ± 5.0 % IA/g and the “Biodistribution Liver” value ([2]; 1 hour p.i., LNCaP xenografts) was 1.02 ± 0.28 % IA/g. For the same molecule, the “Biodistribution Lung” value ([2]; 1 hour p.i., LNCaP xenografts) was 1.69 ± 0.45 % IA/g, the “Biodistribution Muscle” value ([2]; 1 hour p.i., LNCaP xenografts) was 1.12 ± 0.32 % IA/g and the “Biodistribution Pancreas” value ([2]; 1 hour p.i., LNCaP xenografts) was 0.97 ± 0.36 % IA/g. The “Biodistribution Salivary glands” value ([2]; 1 hour p.i., LNCaP xenografts) was 2.01 ± 0.33 % IA/g, the “Biodistribution Spleen” value ([2]; 1 hour p.i., LNCaP xenografts) was 6.04 ± 1.87 % IA/g and the “Biodistribution Stomach” value ([2]; 1 hour p.i., LNCaP xenografts) was 1.13 ± 0.20 % IA/g. For the same molecule, the “Ratio Tumor/Blood” value ([2]; 1 hour p.i., LNCaP xenografts) was 55.8 ± 20.0, the “Ratio Tumor/Kidney” value ([2]; 1 hour p.i., LNCaP xenografts) was 0.13 ± 0.03 and the “Ratio Tumor/Liver” value ([2]; 1 hour p.i., LNCaP xenografts) was 14.9 ± 4.9. For the same molecule, the “Ratio Tumor/Muscles” value ([2]; 1 hour p.i., LNCaP xenografts) was 13.6 ± 3.75, the kidney uptake ([2]; injected amount 200 μmol (so in the source)) was 96 % IA/g and the kidney uptake ([2]; injected amount 400 μmol (so in the source)) was 72 % IA/g. The kidney uptake ([2]; injected amount 1000 μmol (so in the source)) was 34 % IA/g, the “Biodistribution Adrenal” value ([2]; 4 hours p.i., LNCaP xenografts) was 8.32 ± 2.87 % IA/g and the “Biodistribution Blood” value ([2]; 4 hours p.i., LNCaP xenografts) was 0.10 ± 0.03 % IA/g. The “Biodistribution Bone” value ([2]; 4 hours p.i., LNCaP xenografts) was 1.34 ± 0.48 % IA/g, the “Biodistribution Heart” value ([2]; 4 hours p.i., LNCaP xenografts) was 0.22 ± 0.05 % IA/g and the “Biodistribution Intestine” value ([2]; 4 hours p.i., LNCaP xenografts) was 1.06 ± 0.50 % IA/g. The “Biodistribution Kidneys” value ([2]; 4 hours p.i., LNCaP xenografts) was 91 ± 10 % IA/g, the “Biodistribution LNCaP-tumor” value ([2]; 4 hours p.i., LNCaP xenografts) was 10.7 ± 3.3 % IA/g and the “Biodistribution Liver” value ([2]; 4 hours p.i., LNCaP xenografts) was 0.72 ± 0.11 % IA/g. For the same molecule, the “Biodistribution Lung” value ([2]; 4 hours p.i., LNCaP xenografts) was 0.74 ± 0.19 % IA/g, the “Biodistribution Muscle” value ([2]; 4 hours p.i., LNCaP xenografts) was 0.50 ± 0.22 % IA/g and the “Biodistribution Pancreas” value ([2]; 4 hours p.i., LNCaP xenografts) was 0.45 ± 0.09 % IA/g. For the same molecule, the “Biodistribution Salivary glands” value ([2]; 4 hours p.i., LNCaP xenografts) was 0.52 ± 0.06 % IA/g, the “Biodistribution Spleen” value ([2]; 4 hours p.i., LNCaP xenografts) was 1.28 ± 0.39 % IA/g and the “Biodistribution Stomach” value ([2]; 4 hours p.i., LNCaP xenografts) was 0.66 ± 0.15 % IA/g. The “Ratio Tumor/Blood” value ([2]; 4 hours p.i., LNCaP xenografts) was 109 ± 43, the “Ratio Tumor/Kidney” value ([2]; 4 hours p.i., LNCaP xenografts) was 0.12 ± 0.03 and the “Ratio Tumor/Liver” value ([2]; 4 hours p.i., LNCaP xenografts) was 15.4 ± 5.7. For the same molecule, the “Ratio Tumor/Muscles” value ([2]; 4 hours p.i., LNCaP xenografts) was 25.4 ± 12.0, the tumor uptake ([2]; 4h p.i., LNCaP xenograft mice, comparison with reference radiotracer, p=0.0145) was 10.7±3.3 % IA/g and the “accumulation in tumor and target-positive tissues” value ([2]; LNCaP xenografts) was “high accumulation in PSMA-positive (LNCaP) tumor and PSMA-positive tissues”. For the same molecule, the “Biodistribution Adrenal” value [2, 4] was 17.3 ± 3.26 % IA/g, the “Biodistribution Blood” value [2, 4] was 0.28 ± 0.06 % IA/g and the “Biodistribution Bone” value [2, 4] was 2.73 ± 0.91 % IA/g. For the same molecule, the “Biodistribution Heart” value [2, 4] was 0.45 ± 0.15 % IA/g, the “Biodistribution Intestine” value [2, 4] was 2.11 ± 0.78 % IA/g and the “Biodistribution Kidney” value [2, 4] was 118 ± 13 % IA/g. The “Biodistribution LNCaP-tumor” value [2, 4] was 14.0 ± 5.0 % IA/g, the “Biodistribution Liver” value [2, 4] was 1.02 ± 0.28 % IA/g and the “Biodistribution Lung” value [2, 4] was 1.69 ± 0.45 % IA/g. For the same molecule, the “Biodistribution Muscle” value [2, 4] was 1.12 ± 0.32 % IA/g, the “Biodistribution Pancreas” value [2, 4] was 0.97 ± 0.36 % IA/g and the “Biodistribution Salivary gland” value [2, 4] was 2.01 ± 0.33 % IA/g. The “Biodistribution Spleen” value [2, 4] was 6.04 ± 1.87 % IA/g, the “Biodistribution Stomach” value [2, 4] was 1.13 ± 0.20 % IA/g and the “Ratio Tumor/Blood” value [2, 4] was 55.8 ± 20.0. For the same molecule, the “Ratio Tumor/Kidney” value [2, 4] was 0.13 ± 0.03, the “Ratio Tumor/Liver” value [2, 4] was 14.9 ± 4.9 and the “Ratio Tumor/Muscles” value [2, 4] was 13.6 ± 3.75. For the same molecule, the “Biodistribution Adrenal” value [2, 5] was 8.32 ± 2.87 % IA/g, the “Biodistribution Blood” value [2, 5] was 0.10 ± 0.03 % IA/g and the “Biodistribution Bone” value [2, 5] was 1.34 ± 0.48 % IA/g. The “Biodistribution Heart” value [2, 5] was 0.22 ± 0.05 % IA/g, the “Biodistribution Intestine” value [2, 5] was 1.06 ± 0.50 % IA/g and the “Biodistribution Kidney” value [2, 5] was 90.9 ± 10.1 % IA/g. The “Biodistribution LNCaP-tumor” value [2, 5] was 10.7 ± 3.3 % IA/g, the “Biodistribution Liver” value [2, 5] was 0.72 ± 0.11 % IA/g and the “Biodistribution Lung” value [2, 5] was 0.74 ± 0.19 % IA/g. For the same molecule, the “Biodistribution Muscle” value [2, 5] was 0.50 ± 0.22 % IA/g, the “Biodistribution Pancreas” value [2, 5] was 0.45 ± 0.09 % IA/g and the “Biodistribution Salivary gland” value [2, 5] was 0.52 ± 0.06 % IA/g. The “Biodistribution Spleen” value [2, 5] was 1.28 ± 0.39 % IA/g, the “Biodistribution Stomach” value [2, 5] was 0.66 ± 0.15 % IA/g and the “Ratio Tumor/Blood” value [2, 5] was 109 ± 43. For the same molecule, the “Ratio Tumor/Kidney” value [2, 5] was 0.12 ± 0.03, the “Ratio Tumor/Liver” value [2, 5] was 15.4 ± 5.7 and the “Ratio Tumor/Muscles” value [2, 5] was 25.4 ± 12.0. For the same molecule, the “tracer uptake on PET/CT in patient” value [3] was “intense tracer uptake by multiple osseous, pelvic lymph node, and liver metastases”.
